Test results published in patent publication US20250084092A1, “ANNULATED PYRIDAZINE COMPOUND” (Nico Therapeutics, Inc., priority 2021, published 2025).
Counter-ions that a name gives are not always drawn.

The compounds below were run against T1, NLRP3 inflammasome (Homo sapiens, UniProt Q96P20) (assay: THP-1 IL-1β production inhibition test). Settings: PMA-treated THP-1 cells, LPS 50 ng/mL + ATP 5 mM, 2 hours, IL-1β in supernatant by ELISA.
T1 construct: endogenous in cells; host or cells: THP-1 cells (PMA-differentiated, stimulated with LPS and ATP)
Format: cell-based
Experimental: PMA (phorbol myristate acetate, SIGMA, P1585) was added to THP-1 cells in an amount of 50 ng/mL to culture the cells for 2 days at 37° C. […] LPS (Lipopolysaccharide, SIMGA, L2880) and ATP (Adenosine triphosphate, SIGMA, A2383) were added so that final concentrations become 50 ng/mL and 5 mM, respectively, followed by culturing at 37° C. for 2 hours. The supernatants were collected to measure the concentrations of IL-1β by ELISA (DuoSet ELISA human IL-1β, R&D Systems, DY201). The IL-1β concentrations were plotted against log concentrations of test compounds, and an IC50 value was calculated by sigmoid Emax model nonlinear regression analysis.

T1 sequence (Q96P20 whole entry): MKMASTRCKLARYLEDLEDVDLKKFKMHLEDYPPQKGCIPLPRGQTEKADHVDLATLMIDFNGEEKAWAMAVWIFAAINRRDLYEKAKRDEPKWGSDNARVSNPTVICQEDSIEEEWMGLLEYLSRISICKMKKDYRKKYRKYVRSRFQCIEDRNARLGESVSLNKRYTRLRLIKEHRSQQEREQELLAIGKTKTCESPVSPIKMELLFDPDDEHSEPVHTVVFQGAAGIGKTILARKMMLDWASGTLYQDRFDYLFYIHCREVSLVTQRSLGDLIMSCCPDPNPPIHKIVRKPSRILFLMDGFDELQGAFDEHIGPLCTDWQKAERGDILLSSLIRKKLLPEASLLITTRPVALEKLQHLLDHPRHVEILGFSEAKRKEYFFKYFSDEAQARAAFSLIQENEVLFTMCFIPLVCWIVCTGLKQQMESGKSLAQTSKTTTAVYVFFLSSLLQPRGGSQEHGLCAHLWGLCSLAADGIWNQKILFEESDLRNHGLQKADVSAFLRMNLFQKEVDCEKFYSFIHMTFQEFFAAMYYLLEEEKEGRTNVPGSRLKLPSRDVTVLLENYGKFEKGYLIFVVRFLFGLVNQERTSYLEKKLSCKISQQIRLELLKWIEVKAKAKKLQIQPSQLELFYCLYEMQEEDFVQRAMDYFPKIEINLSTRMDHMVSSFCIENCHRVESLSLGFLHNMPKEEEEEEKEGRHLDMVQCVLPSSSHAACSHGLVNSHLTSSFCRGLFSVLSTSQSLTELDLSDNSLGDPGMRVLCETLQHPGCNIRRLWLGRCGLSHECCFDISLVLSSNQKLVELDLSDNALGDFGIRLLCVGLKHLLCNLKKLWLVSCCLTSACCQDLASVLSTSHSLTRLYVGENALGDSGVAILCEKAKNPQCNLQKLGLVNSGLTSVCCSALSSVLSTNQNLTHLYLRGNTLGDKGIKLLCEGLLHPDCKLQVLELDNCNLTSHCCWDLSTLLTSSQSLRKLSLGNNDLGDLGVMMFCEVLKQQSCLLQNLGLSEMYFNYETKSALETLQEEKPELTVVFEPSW

How did the IC50 turn out when `Oc1cc(C(F)(F)F)ccc1-c1nnc(N[C@@H]2CCCC[C@H]2O)c2c1CCC2` [Example 19] was run?
The IC50 was 81 nM.

`OCC1(CNc2nnc(-c3ccc(C(F)(F)F)cc3O)c3ccccc23)CC1` [Example 13] was tested. Which IC50 did it give?
Its IC50 is 15 nM.

`OCC12CC(Nc3nnc(-c4ccc(C(F)(F)F)cc4O)c4c3CCCC4)(C1)C2` [Example 40] was tested. Which IC50 did it give?
The IC50 was 50 nM.

With `C[C@@H](O)CNc1nnc(-c2ccc(C(F)(F)F)cc2O)c2ccncc12` [16(1)] as the compound, how does the IC50 read?
The IC50 was 1.9 nM.

For `Oc1cc(C(F)(F)F)ccc1-c1nnc(N[C@H]2CCC(F)(F)C2)c2ccccc12` [Example 11], which IC50 is on record?
The IC50 was 16 nM.

`Oc1cc(C(F)(F)F)c(F)cc1-c1nnc(N[C@@H]2CCCC[C@H]2O)c2c1CCOC2` [Example 86] was tested. Which IC50 did it give?
Its IC50 is 11 nM.

How did the IC50 turn out when `C[C@@H](O)CNc1nnc(-c2ccc(C(F)(F)F)cc2O)c2c1CCCC2` [Example 17] was run?
The IC50 was 20 nM.

`COc1ccc(-c2nnc(N[C@@H]3CCCC[C@@]3(C)O)c3c2CCCC3)c(O)c1` [Example 58] was tested. Which IC50 did it give?
The IC50 was 88 nM.

`N[C@@H]1CCCC[C@H]1Nc1nnc(-c2ccc(C(F)(F)F)cc2O)c2ccccc12` [Example 82, 2-(4-{[(1R,2R)-2-aminocyclohexyl]amino}phthalazin-1-yl)-5-(trifluoromethyl)phenol dihydrochloride] was tested. Which IC50 did it give?
Its IC50 is 28 nM.

`Cc1ccc(-c2nnc(N[C@H]3C[C@@](C)(O)C3)c3c2CCCC3)c(O)c1` [Example 31] was tested. Which IC50 did it give?
Its IC50 is 44 nM.

`O=S1(=O)CCc2c(N[C@@H]3CCCC[C@H]3O)nnc(-c3ccc(C(F)(F)F)cc3O)c2C1` [Example 130] was tested. Which IC50 did it give?
The IC50 was 22 nM.

With `CC(=O)N1CCC[C@@H](Oc2nnc(-c3ccc(C(F)(F)F)cc3O)c3ccccc23)C1` [Example 65] as the compound, how does the IC50 read?
The IC50 was 48 nM.

`Oc1cc(C(F)(F)F)c(F)cc1-c1nnc(N[C@@H]2CCCC[C@H]2O)c2c1CCCC2` [Example 85] was tested. Which IC50 did it give?
Its IC50 is 58 nM.

Which IC50 does the source give for `C[C@]1(O)C[C@@H](Nc2nnc(-c3ccc(Cl)cc3O)c3c2CCCC3)C1` [Example 30] here?
Its IC50 is 22 nM.

Which IC50 does the source give for `CN1CCc2c(N[C@@H]3CCCC[C@H]3O)nnc(-c3ccc(C(F)(F)F)cc3O)c2C1` [Example 75] here?
The IC50 was 54 nM.

With `C[C@@H](O)CNc1nnc(-c2ccc(C(F)(F)F)cc2C(F)(F)F)c2c1CN(S(C)(=O)=O)CC2` [Example 80, (2R)-1-({1-[2,4-bis(trifluoromethyl)phenyl]-6-(methanesulfonyl)-5,6,7,8-tetrahydropyrido[3,4-d]pyridazin-4-yl}amino)propan-2-ol] as the compound, how does the IC50 read?
The IC50 was 5200 nM.

For `COc1ccc(-c2nnc(N[C@@H]3CCCC[C@H]3O)c3c2CCCC3)c(O)c1` [Example 28], which IC50 is on record?
Its IC50 is 14 nM.

Which IC50 does the source give for `CN1CCC[C@@H](Nc2nnc(-c3ccc(C4CC4)cc3O)c3c2COCC3)C1` [Example 112, 5-cyclopropyl-2-(4-{[(3R)-1-methylpiperidin-3-yl]amino}-7,8-dihydro-5H-pyrano[3,4-d]pyridazin-1-yl)phenol] here?
The IC50 was 1.3 nM.

For `Oc1cc(C(F)(F)F)ccc1-c1nnc(N[C@@H]2CCCC[C@H]2O)c2c1COCCC2` [108(1)], which IC50 is on record?
Its IC50 is 27 nM.

`Oc1cc(C(F)(F)F)ccc1-c1nnc(N[C@@H]2CCCC[C@H]2O)c2c1CNC2` [Example 98, 2-(4-{[(1R,2R)-2-hydroxycyclohexyl]amino}-6,7-dihydro-5H-pyrrolo[3,4-d]pyridazin-1-yl)-5-(trifluoromethyl)phenol] was tested. Which IC50 did it give?
The IC50 was 95 nM.

With `CN1CCC[C@@H](Nc2nnc(-c3ccc(C(F)(F)F)cc3O)c3c2CCOCC3)C1` [Example 105] as the compound, how does the IC50 read?
The IC50 was 8.9 nM.

For `Cc1cc(O)c(-c2nnc(N[C@@H]3CCCC[C@H]3O)c3c2CCOC3)c(F)c1` [62(1)], which IC50 is on record?
The IC50 was 6.1 nM.

How did the IC50 turn out when `N#C[C@@H]1CCCC[C@H]1Nc1nnc(-c2ccc(C(F)(F)F)cc2O)c2c1COCC2` [72(1)] was run?
Its IC50 is 27 nM.

Which IC50 does the source give for `Oc1cc(C(F)(F)F)ccc1-c1nnc(N[C@@H]2CCCC[C@H]2O)c2c1CCCOC2` [108(2)] here?
Its IC50 is 3 nM.

Which IC50 does the source give for `Oc1cc(C(F)(F)F)ccc1-c1nnc(N[C@@H]2CCCC[C@H]2O)c2c1CCSC2` [Example 103] here?
Its IC50 is 4.4 nM.

For `Oc1cc(OC(F)F)ccc1-c1nnc(N[C@@H]2CCCC[C@H]2O)c2c1CCCOC2` [Example 116], which IC50 is on record?
Its IC50 is 4.4 nM.

For `Cc1cc(O)c(-c2nnc(N[C@@H]3CCCC[C@H]3O)c3c2COCC3)c(F)c1` [62(2)], which IC50 is on record?
The IC50 was 27 nM.

For `Oc1cc(C(F)(F)F)ccc1-c1nnc(N[C@@H]2CCOC[C@H]2O)c2c1CCOC2` [101(1)], which IC50 is on record?
The IC50 was 2 nM.

`C[C@@]1(O)CCCC[C@H]1Nc1nnc(-c2ccc(OC(F)(F)F)cc2O)c2c1CCCC2` [Example 54] was tested. Which IC50 did it give?
The IC50 was 21 nM.

`Oc1cc(C2CC2)ccc1-c1nnc(N[C@@H]2CCCC[C@H]2O)c2c1COCC2` [52(2)] was tested. Which IC50 did it give?
The IC50 was 27 nM.

How did the IC50 turn out when `Oc1cc(OC(F)(F)F)ccc1-c1nnc(N[C@@H]2CCCC[C@H]2O)c2c1COCC2` [3(2), 2-(1-{[(1R,2R)-2-hydroxycyclohexyl]amino}-7,8-dihydro-5H-pyrano[3,4-d]pyridazin-4-yl)-5-(trifluoromethoxy)phenol] was run?
The IC50 was 7 nM.

Which IC50 does the source give for `COc1ccc(-c2nnc(N[C@H]3C[C@@](C)(O)C3)c3c2CCCC3)c(O)c1` [Example 33] here?
The IC50 was 100 nM.

How did the IC50 turn out when `C[C@]1(O)C[C@@H](Nc2nnc(-c3ccc(C(F)(F)F)cc3O)c3c2CCOC3)C1` [56(2)] was run?
The IC50 was 36 nM.

Which IC50 does the source give for `C[C@]1(O)C[C@@H](Nc2nnc(-c3ccc(C(F)(F)F)cc3O)c3c2CCC3)C1` [Example 59] here?
Its IC50 is 40 nM.

For `Oc1cc(C(F)(F)F)ccc1-c1nnc(N[C@@H]2CCCC[C@H]2O)c2c1OCCC2` [Example 42], which IC50 is on record?
The IC50 was 37 nM.

For `Cc1ccc(-c2nnc(NCCCO)c3c2CCCC3)cc1` [Example 6], which IC50 is on record?
Its IC50 is 9000 nM.

Which IC50 does the source give for `C[C@@H](O)CCc1nnc(-c2ccc(C(F)(F)F)cc2O)c2c1CCCC2` [Example 20] here?
The IC50 was 22 nM.

With `COc1ccc(-c2nnc(N[C@@H]3CCOC[C@H]3O)c3c2CCCCC3)c(O)c1` [Example 49] as the compound, how does the IC50 read?
The IC50 was 22 nM.

Which IC50 does the source give for `Cc1ccc(-c2nnc(N[C@@H]3CCCC[C@H]3O)c3c2CCCC3)c(O)c1` [Example 26] here?
Its IC50 is 15 nM.

How did the IC50 turn out when `Oc1cc(C(F)F)ccc1-c1nnc(N[C@@H]2CCCC[C@H]2O)c2c1COC2` [Example 115] was run?
The IC50 was 11 nM.

With `CN1CCC[C@@H](Nc2nnc(-c3ccc(OC(F)(F)F)cc3O)c3c2COCC3)C1` [Example 128, 2-(4-{[(3R)-1-methylpiperidin-3-yl]amino}-7,8-dihydro-5H-pyrano[3,4-d]pyridazin-1-yl)-5-(trifluoromethoxy)phenol] as the compound, how does the IC50 read?
The IC50 was 3.3 nM.

For `Oc1cc(C(F)(F)F)ccc1-c1nnc(N[C@@H]2CCCC[C@H]2O)c2c1COCC2` [2(2), 2-(1-{[(1R,2R)-2-hydroxycyclohexyl]amino}-7,8-dihydro-5H-pyrano[3,4-d]pyridazin-4-yl)-5-(trifluoromethyl)phenol], which IC50 is on record?
The IC50 was 14 nM.

Which IC50 does the source give for `C[C@@H](O)CNc1nnc(-c2ccc(C(F)(F)F)cc2C(F)(F)F)c2c1CN(Cc1ccccc1)CC2` [Example 9] here?
The IC50 was 1300 nM.

With `Oc1cc(C(F)(F)F)ccc1-c1nnc(N[C@@H]2CCCC[C@H]2O)c2c1CCNC2` [Example 90, 2-(4-{[(1R,2R)-2-hydroxycyclohexyl]amino}-5,6,7,8-tetrahydropyrido[3,4-d]pyridazin-1-yl)-5-(trifluoromethyl)phenol dihydrochloride] as the compound, how does the IC50 read?
The IC50 was 12 nM.

For `Oc1cc(C(F)F)ccc1-c1nnc(N[C@@H]2CCC[C@H](O)C2)c2c1COC2` [Example 114, 5-(difluoromethyl)-2-(4-{[(1R,3S)-3-hydroxycyclohexyl]amino}-5,7-dihydrofuro[3,4-d]pyridazin-1-yl)phenol], which IC50 is on record?
The IC50 was 15 nM.

For `Oc1cc(OC(F)(F)F)ccc1-c1nnc(N[C@@H]2CCCC[C@H]2O)c2c1CCCCC2` [Example 43], which IC50 is on record?
The IC50 was 8.7 nM.

How did the IC50 turn out when `N[C@@H]1CCCC[C@H]1Nc1nnc(-c2ccc(C(F)(F)F)cc2O)c2c1CCOC2` [Example 95, 2-(1-{[(1R,2R)-2-aminocyclohexyl]amino}-7,8-dihydro-5H-pyrano[3,4-d]pyridazin-4-yl)-5-(trifluoromethyl)phenol] was run?
Its IC50 is 61 nM.

Which IC50 does the source give for `Oc1cc(OC(F)(F)F)ccc1-c1nnc(N[C@@H]2CCOC[C@H]2O)c2c1CCCC2` [Example 37] here?
Its IC50 is 18 nM.

With `Oc1ccccc1-c1nnc(N[C@@H]2CCCC[C@H]2O)c2c1CCOC2` [Example 61] as the compound, how does the IC50 read?
The IC50 was 96 nM.

With `O=S1(=O)CCc2c(-c3ccc(C(F)(F)F)cc3O)nnc(N[C@@H]3CCCC[C@H]3O)c2C1` [Example 129, 4-{[(1R,2R)-2-hydroxycyclohexyl]amino}-1-[2-hydroxy-4-(trifluoromethyl)phenyl]-7,8-dihydro-6λ^6-thiopyrano[3,4-d]pyridazin-6,6(5H)-dione] as the compound, how does the IC50 read?
Its IC50 is 86 nM.

Which IC50 does the source give for `CC(=O)N1Cc2c(N[C@@H]3CCCC[C@H]3O)nnc(-c3ccc(C(F)(F)F)cc3O)c2C1` [Example 117, 1-(1-{[(1R,2R)-2-hydroxycyclohexyl]amino}-4-[2-hydroxy-4-(trifluoromethyl)phenyl]-5,7-dihydro-6H-pyrrolo[3,4-d]pyridazin-6-yl)ethan-1-one] here?
The IC50 was 130 nM.

With `CC(=O)N[C@@H]1CCCC[C@H]1Nc1nnc(-c2ccc(C(F)(F)F)cc2O)c2ccccc12` [Example 23] as the compound, how does the IC50 read?
Its IC50 is 17 nM.

How did the IC50 turn out when `C[C@]1(O)C[C@@H](Nc2nnc(-c3ccc(C(F)(F)F)cc3O)c3c2COCC3)C1` [56(1)] was run?
Its IC50 is 7 nM.

How did the IC50 turn out when `C[C@@H](O)CNc1nnc(-c2ccc(C(F)(F)F)cc2O)c2cnccc12` [16(2)] was run?
The IC50 was 20 nM.

`Oc1cc(C(F)(F)F)ccc1-c1nnc(N[C@@H]2CCCN(C3CC3)C2)c2c1CSC2` [Example 126, 2-(4-{[(3R)-1-cyclopropylpiperidin-3-yl]amino}-5,7-dihydrothieno[3,4-d]pyridazin-1-yl)-5-(trifluoromethyl)phenol] was tested. Which IC50 did it give?
Its IC50 is 7.1 nM.

With `Oc1cc(C2CC2)ccc1-c1nnc(N[C@@H]2CCCC[C@H]2O)c2c1CCOC2` [52(1)] as the compound, how does the IC50 read?
Its IC50 is 4.1 nM.

Which IC50 does the source give for `Oc1cc(OC(F)(F)F)ccc1-c1nnc(N[C@@H]2CCOC[C@H]2O)c2c1CCCCC2` [Example 45] here?
Its IC50 is 14 nM.
